Legend:
[1] = Selectivity for human neutrophil elastase (HNE) over HCV NS3 protease
NS3 = NS3 (Hepatitis C virus, UniProt A3EZJ3); assay: Binding affinity at HCV NS3 protease; set-up: species or system Hepatitis C virus subtype 1b
[2] = AUC(0-6h) in rat at 10 mg, po; type: ADME, organism-based; set-up: time < 6 hr, dose 10 mg, route oral; conditions: plasma
[3] = AUC in rat at 10 mg/kg, po; type: ADME, organism-based; set-up: dose 10 mg/kg, route oral; conditions: plasma
[4] = Bioavailability in dog at 3 mg/kg, po; type: ADME, organism-based, Canis lupus familiaris; conditions: in vivo
[5] = Bioavailability in mouse; type: ADME, organism-based; conditions: in vivo
[6] = Ratio of drug level in liver against plasma in rat; type: ADME, organism-based
Hepatocyte = assay: Inhibition of HCV replication in hepatocytes measured by cellular replicon assay; type: functional; conditions: Hepatitis C virus
[7] = AUC in dog at 3 mg/kg, po; type: ADME, organism-based, Canis lupus familiaris; set-up: dose 3 mg/kg, route oral; conditions: plasma
[8] = Bioavailability in monkey at 3 mg/kg, po; conditions: rhesus monkey, in vivo
Huh-5-2 = assay: Cytotoxicity against hepatoma cell line containing HCV replicon measured as change in GAPDH RNA level; type: functional, Homo sapiens
[9] = Bioavailability in rat at 10 mg/kg, po; type: ADME, organism-based; conditions: in vivo
[10] = AUC in monkey at 3 mg/kg, po; conditions: rhesus monkey, plasma
[11] = AUC in dog at 2 mg/kg, po; type: ADME, organism-based, Canis lupus familiaris; set-up: dose 2 mg/kg, route oral; conditions: plasma
[12] = Bioavailability in monkey at 2 mg/kg, po; conditions: rhesus monkey, in vivo
[13] = AUC in monkey at 2 mg/kg, po; conditions: rhesus monkey, plasma
[14] = Bioavailability in dog at 2 mg/kg, po; type: ADME, organism-based, Canis lupus familiaris; conditions: in vivo
[15] = AUC in rat; type: ADME, organism-based; conditions: plasma

Chain of NS3 (A3EZJ3 whole entry): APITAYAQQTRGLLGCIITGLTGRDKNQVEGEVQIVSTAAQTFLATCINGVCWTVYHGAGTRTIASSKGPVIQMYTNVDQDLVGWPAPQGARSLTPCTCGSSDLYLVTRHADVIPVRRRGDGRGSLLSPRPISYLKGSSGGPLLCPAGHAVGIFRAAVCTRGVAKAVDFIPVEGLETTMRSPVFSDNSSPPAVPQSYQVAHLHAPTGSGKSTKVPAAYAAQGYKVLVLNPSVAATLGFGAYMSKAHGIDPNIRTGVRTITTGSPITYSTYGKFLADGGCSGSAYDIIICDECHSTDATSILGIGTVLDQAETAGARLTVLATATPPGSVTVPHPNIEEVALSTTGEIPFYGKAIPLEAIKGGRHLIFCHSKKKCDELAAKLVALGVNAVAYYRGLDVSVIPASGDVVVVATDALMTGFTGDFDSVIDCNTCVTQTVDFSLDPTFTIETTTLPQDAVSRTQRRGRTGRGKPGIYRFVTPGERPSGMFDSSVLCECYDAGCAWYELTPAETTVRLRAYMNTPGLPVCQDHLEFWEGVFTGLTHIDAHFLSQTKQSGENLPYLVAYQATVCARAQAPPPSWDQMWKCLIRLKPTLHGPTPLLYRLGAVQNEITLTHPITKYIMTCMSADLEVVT

| Structure (SMILES) | Selectivity ratio [1] | Ki (NS3) [nM] | AUC [3] [µM·h] | EC90 (Hepatocyte) [nM] | Activity (Huh-5-2) [µM] | bioavailability [9] [%] | further results |
| --- | --- | --- | --- | --- | --- | --- | --- |
| CCCC(NC(=O)[C@@H]1[C@@H]2[C@H](CN1C(=O)[C@@H](NC(=O)OC(C)(C)C)C1CCCCC1)C2(C)C)C(=O)C(N)=O (some centres undefined) | 3 | 100 |  |  |  |  | AUC(0-t) at 6 h [2]: 2.52 µM·h |
| C=CCNC(=O)C(=O)C(CCC)NC(=O)[C@@H]1[C@@H]2[C@H](CN1C(=O)[C@@H](NC(=O)OC(C)(C)C)C1CCCCC1)C2(C)C (some centres undefined) |  | 280 |  |  |  |  | AUC(0-t) at 6 h [2]: 26 µM·h |
| CC(C)(C)NC(=O)N[C@H](C(=O)N1C[C@H]2[C@@H]([C@H]1C(=O)NC(CC1CCC1)C(=O)C(N)=O)C2(C)C)C(C)(C)C (some centres undefined) [BOCEPREVIR] | 2200 | 14 | 1.52 | 350 | >5 | 26 | bioavailability [4]: 30%; bioavailability [5]: 34%; Kp [6]: 30; AUC [7]: 3.08 µM·h; bioavailability [8]: 4%; AUC [10]: 0.12 µM·h |
| CC(C)(C)NC(=O)N[C@H](C(=O)N1C[C@H]2[C@@H]([C@H]1C(=O)NC(CC1CC1)C(=O)C(N)=O)C2(C)C)C(C)(C)C (some centres undefined) | 369 | 13 | 1 | 400 | >5 | 16 | AUC [11]: 1.6 µM·h; bioavailability [12]: 2%; AUC [13]: 0.05 µM·h; bioavailability [14]: 36% |
| CCCC(NC(=O)[C@@H]1[C@@H]2[C@H](CN1C(=O)[C@@H](NC(=O)OC(C)(C)C)C1CCCCC1)C2(C)C)C(=O)C(=O)NCC(=O)N[C@H](C)C1CCCCC1 (some centres undefined) |  | 100 |  |  |  |  | AUC [15]: 0.09 µM·h |
| CC(C)(C)OC(=O)N[C@H](C(=O)N1C[C@H]2[C@@H]([C@H]1C(=O)NC(CC1CCC1)C(=O)C(N)=O)C2(C)C)C1CCCCC1 (some centres undefined) | 138 | 8 | 1.5 | 700 | >5 | 28 | bioavailability [8]: 1%; AUC [10]: 0.11 µM·h |
| CCCC(NC(=O)[C@@H]1[C@@H]2[C@H](CN1C(=O)[C@@H](NC(=O)OC(C)(C)C)C1CCCCC1)C2(C)C)C(=O)C(=O)NC (some centres undefined) |  | 1500 |  |  |  |  | AUC(0-t) at 6 h [2]: 13.4 µM·h |
| CCCC(NC(=O)[C@@H]1[C@@H]2[C@H](CN1C(=O)[C@@H](NC(=O)OC(C)(C)C)C1CCCCC1)C2(C)C)C(=O)C(=O)NCC(=O)NCc1cccs1 (some centres undefined) |  | 60 |  |  |  |  | AUC [15]: 0.73 µM·h |
| CCCC(NC(=O)[C@@H]1[C@@H]2[C@H](CN1C(=O)[C@@H](NC(=O)OC(C)(C)C)C1CCCCC1)C2(C)C)C(=O)C(=O)NCC(=O)NCc1ccccc1 (some centres undefined) |  | 56 |  |  |  |  | AUC [15]: 1.27 µM·h |
| CC(C)NC(=O)N[C@H](C(=O)N1C[C@H]2[C@@H]([C@H]1C(=O)NC(CC1CCC1)C(=O)C(N)=O)C2(C)C)C(C)(C)C (some centres undefined) | 4200 | 16 | 0.83 | 730 | >5 | 13 |  |
| CC(C)(C)OC(=O)N[C@H](C(=O)N1C[C@H]2[C@@H]([C@H]1C(=O)NC(CC1CC1)C(=O)C(N)=O)C2(C)C)C1CCCCC1 (some centres undefined) | 23 | 25 | 1.3 | 400 | >5 | 3.4 |  |
| CC(C)(C)OC(=O)N[C@H](C(=O)N1C[C@H]2[C@@H]([C@H]1C(=O)NC(CC1CC1)C(=O)C(N)=O)C2(C)C)C1Cc2ccccc2C1 (some centres undefined) | 49 | 82 |  | > 1000 | >5 |  |  |
